Like-named read-outs stand apart in the source and are kept apart here.

The subject of series [1] is KB cells. As to conditions: read-out: Cytotoxicity IC50, KB (natural product comparator), other cells 'Not available'; cited from earlier work.
In series [2] the test system is Jurkat cells. Kind of series: Cytotoxicity assay (CellTiter-Glo) in Jurkat cells. In kind it is cell-based. As to conditions: for Cytotoxicity in Jurkat screening (in words): cytotoxicity screening in Jurkat cell lines, FIG. 20. The method, then: (§1) Jurkat and L5178Y cells were cultured in RPMI 1640 (ATCC), HL60 cells were cultured in Iscove's Modified Dulbecco's Medium (IMDM, ATCC), KB and MCF7 cells were cultured in Eagles Minimum Essential Medium (EMEM, ATCC), and SKOV3 cells in McCoy's 5a Medium (ATCC) supplemented with 10% Heat Inactivated Fetal Bovine Serum (FBS), and Penicillin and Streptomycin (P/S) at 37° C. in a 5% CO2 incubator.
(§2) Proliferating cells were seeded at approximately 20×10^3 cells per 50 μL per well into 96 well plates using a MultiFlo FX multi-mode dispenser (BioTek). On reaching ≈40% cell density, the cells were then incubated with varying concentrations (195 nM to 200 μM final) of test samples using a Biomek FXP Automated Workstation (Beckman Coulter). 48 hours post drug incubation, cell viability was determined using Promega's CellTiter-Glo Luminescent Cell Viability Assay according to the manufacturer's protocol on a plate reader (EnVision from PerkinElmer) in Luminescence mode. In each experiment, each unique condition (i.e., different sample type and concentration) was tested in triplicate. […] IC50 values for each treatment were calculated using Graph-Pad Prism 8.0 Software.

Series [3] in a line: Cytotoxicity assay (CellTiter-Glo) in KB cells. In kind it is cell-based. As to conditions: human, 48 hours post drug incubation, cell viability by CellTiter-Glo, triplicate, read-out: Chromenone cytotoxicity IC50, KB. The procedure:
as §1
(§3) Proliferating cells were seeded at approximately 20×10^3 cells per 50 μL per well into 96 well plates using a MultiFlo FX multi-mode dispenser (BioTek). On reaching ≈40% cell density, the cells were then incubated with varying concentrations (195 nM to 200 μM final) of test samples using a Biomek FXP Automated Workstation (Beckman Coulter). 48 hours post drug incubation, cell viability was determined using Promega's CellTiter-Glo Luminescent Cell Viability Assay according to the manufacturer's protocol on a plate reader (EnVision from PerkinElmer) in Luminescence mode. In each experiment, each unique condition (i.e., different sample type and concentration) was tested in triplicate. The percentage of test sample induced toxicity was calculated with respect to DMSO treated cells and graphed to give dose response curves. IC50 values for each treatment were calculated using Graph-Pad Prism 8.0 Software.
For orientation: ATP-based viability assays read luminescence as a measure of living cells.

Series [4] has as its system L5178Y cells. Kind of series: Cytotoxicity assay (CellTiter-Glo) in L5178Y cells. In kind it is cell-based. To be noted: 48 hours post drug incubation, cell viability by CellTiter-Glo, triplicate. The method, then:
as §1, §2

Series [5] can be described thus: Cytotoxicity assay (CellTiter-Glo) in HL60 cells. To be noted: human, 48 hours post drug incubation, cell viability by CellTiter-Glo, triplicate, read-out: Chromenone cytotoxicity IC50, HL60. It is filed as cell-based. The method, then:
as §1, §2

Series [6] relates to HL60 cells. The experiment in a line: Cytotoxicity assay (CellTiter-Glo) in HL60 cells. In kind it is cell-based. To be noted: 48 hours post drug incubation, cell viability by CellTiter-Glo, triplicate. The method, then: as §1, §2
In series [7] the test system is L5178Y cells. To be noted: read-out: Cytotoxicity IC50, L5178Y (natural product comparator), other cells 'Not available'; cited from earlier work.
Series [8] can be described thus: Cytotoxicity assay (CellTiter-Glo) in L5178Y cells. In kind it is cell-based. To be noted: mouse, 48 hours post drug incubation, cell viability by CellTiter-Glo, triplicate, read-out: Chromenone cytotoxicity IC50, L5178Y. The method, then: as §1, §2
Series [9] has as its system Jurkat cells. As to conditions: comparator natural product, other cells 'Not available', read-out: Cytotoxicity IC50, Jurkat (natural product comparator); cited from earlier work.
A short description of series [10]: Cytotoxicity assay (CellTiter-Glo) in Jurkat cells. In kind it is cell-based. To be noted: human; Jurkat cells, 48 hours post drug incubation, cell viability by CellTiter-Glo, triplicate; read-out: Chromenone cytotoxicity IC50, Jurkat. The method, then:
as §1, §2

In series [11] the test system is HL60 cells. To be noted: comparator natural product, other cells 'Not available', read-out: Cytotoxicity IC50, HL60 (natural product comparator); cited from earlier work.
The subject of series [12] is KB cells. The experiment in a line: Cytotoxicity assay (CellTiter-Glo) in KB cells. In kind it is cell-based. To be noted: 48 hours post drug incubation, cell viability by CellTiter-Glo, triplicate, read-out: Chromenone cytotoxicity IC50, KB. The method, then: as §1, §3

The IC50 is the concentration that inhibits the measured activity by half. Turning to Phomoxanthone B, the IC50 in the series with KB cells [1] is 4.1 µM.
Regarding `COC(=O)C(C)(C)c1cc(=O)c2c(OC)c(-c3ccc4oc(C(C)(C)C(=O)OC)cc(=O)c4c3OC)ccc2o1` [Compound 35c, Dimethyl 2,2′-(5,5′-Dimethoxy-4,4′-dioxo-4H,4′H-[6,6′-bichromene]-2,2′-diyl)bis(2-methylpropanoate)], in the series with Jurkat cells [2], the “Cytotoxicity in Jurkat screening (in words)” value (from here on “Cytotoxicity … (in words)”) was “highest levels of cytotoxicity”. For the same compound, in [3], the IC50 at 48 h was found to be 41 ± 1.1 µM.
With `COC(=O)C(C)(C)c1cc(=O)c2c(OC)ccc(-c3ccc(OC)c4c(=O)cc(C(C)(C)C(=O)OC)oc34)c2o1` [Compound 39c, Dimethyl 2,2′-(5,5′-Dimethoxy-4,4′-dioxo-4H,4′H-[8,8′-bichromene]-2,2′-diyl)bis(2-methylpropanoate)], the “Chromenone cytotoxicity IC50, L5178Y” value in the series on L5178Y cells [4] was “low micromolar range”. The IC50 at 48 h in series [5] is 24 µM. The “Chromenone cytotoxicity IC50, HL60” value in the series on HL60 cells [6] was “low micromolar range”. For the same compound, the “Cytotoxicity … (in words)” value with Jurkat cells [2] is “highest levels of cytotoxicity”.
As for Dicerandrol C, in the series on L5178Y cells [7], the IC50 is 10 µM.
In the case of `O=c1cc(C2CCCO2)oc2c(-c3ccc(O)c4c(=O)cc(C5CCCO5)oc34)ccc(O)c12` (stereo not shown) [Compound 28e, 5,5′-Dihydroxy-2,2′-bis(tetrahydrofuran-2-yl)-4H,4′H-[8,8′-bichromene]-4,4′-dione], the IC50 at 48 h in [8], in series [5] and in series [3] was above 50 µM each time. Also, in the series on Jurkat cells [2], the “Cytotoxicity … (in words)” value is recorded as “highest levels of cytotoxicity”.
As for Phomoxanthone A, the figures for the IC50 in the series on KB cells [1], in the series with Jurkat cells [9] and with L5178Y cells [7] were 0.99 µM, 0.5 µM and 0.3 µM, respectively.
For `COc1ccc(-c2ccc(OC)c3c(=O)c(C(C)=O)c(C)oc23)c2oc(C)c(C(C)=O)c(=O)c12` [Compound 42, 3,3′-Diacetyl-5,5′-dimethoxy-2,2′-dimethyl-4H,4′H-[8,8′-bichromene]-4,4′-dione], the IC50 at 48 h in [8], in series [10] and in series [3] was above 50 µM in each case.
For the compound `COc1ccc(-c2ccc(OC)c3c(=O)c(C(C)=O)c([C@@H](OC(C)=O)C(C)C)oc23)c2oc([C@@H](OC(C)=O)C(C)C)c(C(C)=O)c(=O)c12` [Compound 48c], the IC50 at 48 h in series [5], in [10] and in [3] was above 50 µM throughout.
Consider Versixanthone F, for which the IC50 in the series with HL60 cells [11] is 1 µM.
On to “3-Acetyl-5-hydroxy-2-methyl-4H-1-benzopyran-4-one Dimer [Compound 43]”, for which the IC50 with L5178Y cells [4] (read-out: Chromenone cytotoxicity IC50, L5178Y) is above 50 µM; with HL60 cells [6] (read-out: Chromenone cytotoxicity IC50, HL60) it was above 50 µM; in the series on Jurkat cells [2] (Jurkat cells, 48 hours post drug incubation, cell viability by CellTiter-Glo, triplicate, read-out: Chromenone cytotoxicity IC50, Jurkat) it was 39 ± 1.1 µM; in the series on KB cells [12], above 50 µM.
Turning to `COC(=O)C(C)(C)c1cc(=O)c2c(O)ccc(-c3ccc(O)c4c(=O)cc(C(C)(C)C(=O)OC)oc34)c2o1` [Compound 28c, Dimethyl 2,2′-(5,5′-Dihydroxy-4,4′-dioxo-4H,4′H-[8,8′-bichromene]-2,2′-diyl)bis(2-methylpropanoate)], the IC50 at 48 h in series [8] was 23 µM; in series [3] it was above 50 µM. The “Chromenone cytotoxicity IC50, L5178Y” value in the series with L5178Y cells [4] was “low micromolar range”. Besides, the “Chromenone cytotoxicity IC50, HL60” value in the series with HL60 cells [6] is listed as “low micromolar range”. Also, the “Cytotoxicity … (in words)” value in the series with Jurkat cells [2] is reported as “highest levels of cytotoxicity”.

These data come from patent US12649725B2 (Worcester Polytechnic Institute, priority 2020, dated 2026).
